Earlier results in paper PMC10878532, “Sperm Toolbox—A selection of small molecules to study human spermatozoa” (PLOS ONE, 2024).
Structures can show the parent of a compound that is named as a salt.

B1: Urinastatin (protein, UniProt P02760 206-352, looked up)
Inter-alpha-trypsin inhibitor …: AVLPQEEEGSGGGQLVTEVTKKEDSCQLGYSAGPCMGMTSRYFYNGTSMACETFQYGGCMGNGNNFVTEKECLQTCRTVAACNLPIVRGPCRAFIQLWAFDAVKGKCVLFPYGGCQGNGNKFYSEKECREYCGVPGDGDEELLRFSN
modifications: Inter-alpha-trypsin inhibitor light chain
notes: interferes with liquefaction

tested on: spermatozoa; parameters: method as in per compound as listed in column References of Table 1; settings: summaries of reported effects; ref per compound as listed in Table 1; cited from earlier work

| Molecule | Published Phenotype |
| --- | --- |
| Nc1nonc1C(=O)c1cccc(OCc2nc3ccccc3[nH]2)c1 [ASI-8] | Blocks soluble adenyl cyclase (sAC) |
| COc1cc2nc(N(C)CCCNC(=O)C3CCCO3)nc(N)c2cc1OC (stereo not shown) [Alfuzosin] | Interferes with ejaculation |
| CCCCC/C=C\C/C=C\C/C=C\C/C=C\CCCC(=O)NCCO [Anandamide] | Reduces sperm motility |
| CC(=O)N1CCC(C(=O)N(CCCN2CCN(Cc3ccc(F)cc3)CC2)c2ccc(C)c(Cl)c2)CC1 [B07 hydrochloride] | Reduction of sperm motility |
| CC1(C)CC=C(c2ccccc2)c2cc(/C=C/c3ccc(C(=O)O)cc3)ccc21 [BMS-189453] | Interferes with spermatogenesis |
| Cn1c(=O)c2c(-c3ccccc3)n3c(c2n(C)c1=O)[C@H](c1ccc(Br)o1)Oc1ccc(C(=O)O)cc1-3 [BPO-27] | CTFR inhibitor patent |
| Oc1c(Cl)cc(Cl)cc1Sc1cc(Cl)cc(Cl)c1O [Bithionol] | Blocks sAC |
| O=C(O)c1ccc(/C=C2/SC(=S)N(c3cccc(C(F)(F)F)c3)C2=O)cc1 [CTFRinh-172] | Blocks progesterone induced acrosome reaction; blocks sperm hyperactivation; blocks recombinant ZP3 induced acrosome reaction |
| CCOC(=O)CSc1nc(=O)c(NCC(=O)OC)n[nH]1 [Compound B4] | Reduces sperm motility |
| OCCN(CCO)c1nc(N2CCCCC2)c2nc(N(CCO)CCO)nc(N3CCCCC3)c2n1 [Dipyridamole] | Enhances sperm motility |
| CCN(CC)C(=S)SSC(=S)N(CC)CC [Disulfiram] | immotile sperm; spermicidal |
| COc1ccc2nc([S@@+]([O-])Cc3ncc(C)c(OC)c3C)[nH]c2c1 [Esomeprazole] | Reduces sperm motility |
| COC(=O)c1c(C)[nH]c(C)c1C(=O)c1ccccc1Cc1ccccc1 [FPL 64176] | Modulates evoked Ca^2+ response |
| CC(C)C(C(=O)OC(C#N)c1cccc(Oc2ccccc2)c1)c1ccc(Cl)cc1 (stereo not shown) [Fenvalerate] | Blocks progesterone induced acrosome reaction |
| C=C[C@@]1(C)CC(=O)[C@]2(O)[C@@]3(C)[C@@H](O)CCC(C)(C)[C@@H]3[C@H](O)[C@H](OC(C)=O)[C@@]2(C)O1 [Forskolin] | Stimulates acrosome reaction |
| CN(C)CCCn1cc(C2=C(c3c[nH]c4ccccc34)C(=O)NC2=O)c2ccccc21 [GF 109203X] | Blocks progesterone induced acrosome reaction; blocks progesterone induced Ca^2+ response |
| CCc1cc(Nc2nccc(-c3c(-c4ccc(OC)c(C(=O)Nc5c(F)cccc5F)c4)nc4ccccn34)n2)c(OC)cc1N1CCC(N2CCN(S(C)(=O)=O)CC2)CC1 [GSK1904529A] | Inhibition of hyperactivation |
| COc1cc2ncn(-c3cc(OCc4ccccc4C(F)(F)F)c(C(N)=O)s3)c2cc1OC [GW 843682X] | Enhances sperm motility |
| O=c1c(-c2ccc(O)cc2)coc2cc(O)cc(O)c12 [Genistein] | Blocks progesterone induced acrosome reaction; blocks progesterone induced Ca^2+ response |
| Cc1cc2c(C(C)C)c(O)c(O)c(C=O)c2c(O)c1-c1c(C)cc2c(C(C)C)c(O)c(O)c(C=O)c2c1O [Gossypol] | Causes azoospermia |

| Molecule | Published Phenotype |
| --- | --- |
| O=S(=O)(NCCNC/C=C/c1ccc(Br)cc1)c1cccc2cnccc12 [H 89 dihydrochloride] | Evokes Ca^2+ signaling in sperm cells |
| O=C(c1cccs1)c1no[n+]([O-])c1C(=O)c1cccs1 [HC-056456] | Blocks Ca^2+ and Na^+ entry; blocks onset of hyperactive motility |
| CO[C@H]1[C@@H](OC)C[C@H](C)[C@@H](OC)C2=CC(=O)C=C(NC(=O)/C(C)=C/C=C\[C@H](OC)[C@@H](OC(N)=O)/C(C)=C/[C@@H]1C)C2=O [Herbimycin a] | Blocks progesterone induced acrosome reaction; blocks progesterone induced Ca^2+ response |
| Oc1c(Cl)cc(Cl)c(Cl)c1Cc1c(O)c(Cl)cc(Cl)c1Cl [Hexachlorophene] | Reduces sperm motility; blocks sAC |
| CC(C)Cn1c(=O)n(C)c(=O)c2[nH]cnc21 [IBMX] | Modulates capacitation |
| CC(C)Cn1cnc2c(N)nc3ccccc3c21 [Imiquimod] | Reduction of sperm motility; only sperm with X chromosome |
| Cc1sc2c(c1C)C(c1ccc(Cl)cc1)=N[C@@H](CC(=O)OC(C)(C)C)c1nnc(C)n1-2 [JQ1] | Interferes with spermatogenesis; reduces sperm count; reduces motility |
| COc1cc(SC)ccc1C(=O)N1CCC(Cc2ccccc2)CC1 [JX 401] | Modulates Ca^2+ response |
| CCCCCCOC(=O)[C@]1(O)C[C@@H]2O[C@@]1(C)n1c3ccccc3c3c4c(c5c6ccccc6n2c5c31)C(=O)NC4 [KT 5720] | Evokes Ca^2+ signaling in sperm |
| Nc1nc(Cl)cc(N(Cc2cccs2)C2CC2)n1 [LRE1] | Prevents hyperactivation |
| CC(C)c1ccc2c(c1)CC[C@H]1[C@](C)(CN)CCC[C@]21C [Leelamine hydrochloride] | Modulates P4 evoked Ca^2+ response |
| CCCCCCCCCCCCCCCCOCC(COCC(F)(F)F)OP(=O)(O)OC (stereo not shown) [MJ33] | Prevents capacitation-associated tyrosine phosphorylation by PKA |
| COCC(=O)O[C@]1(CCN(C)CCCc2nc3ccccc3[nH]2)CCc2cc(F)ccc2[C@@H]1C(C)C [Mibefradil] | Blocks progesterone induced Ca^2+ response |
| CCCCN1C[C@H](O)[C@@H](O)[C@H](O)[C@H]1CO [Miglustat] | Interferes with spermatogenesis |
| CC(C)[C@H]1c2ccc(F)cc2CC[C@@]1(CCN(C)CCCc1nc2ccccc2[nH]1)OC(=O)C1CC1 [NNC 55–0396 dihydrochloride] | Blocks ccl-20 induced Ca^2+ response; Modulates CatSper |
| N=C(N)c1ccc2cc(OC(=O)c3ccc(N=C(N)N)cc3)ccc2c1 [Nafamostat] | Interferes with liquefaction; reduces sperm motility |
| O=C(Nc1ccc([N+](=O)[O-])cc1Cl)c1cc(Cl)ccc1O [Niclosamide] | Shape abnormality |
| O=C(O)c1cccnc1Nc1cccc(C(F)(F)F)c1 [Niflumic acid] | Blocks acrosome reaction induced by recombinant rhZP3 |
| Cc1ccc(S(=O)(=O)c2c(N)n(CC(O)c3ccc([N+](=O)[O-])cc3)c3nc4ccccc4nc23)cc1 (stereo not shown) [Oprea1_544341] | Reduces sperm motility; role of glycolysis in sperm motility |
| C[C@@H]1O[C@@H](O[C@H]2C[C@@H](O)[C@]3(CO)[C@H]4[C@H](O)C[C@]5(C)[C@@H](C6=CC(=O)OC6)CC[C@]5(O)[C@@H]4CC[C@]3(O)C2)[C@H](O)[C@H](O)[C@H]1O [Ouabain] | Reduces sperm motility |

| Molecule | Published Phenotype |
| --- | --- |
| c1ccc2c(c1)SCc1c-2[nH]c2ccccc12 [PD 146176] | Antagonizing negative effects of ROS on sperm function such as acrosome reaction |
| CN(c1ccccc1CNc1nc(Nc2ccc3c(c2)CC(=O)N3)ncc1C(F)(F)F)S(C)(=O)=O [PF 431396] | Blocks capacitation |
| Cc1[nH]c(/C=C2\C(=O)Nc3ccc(S(=O)(=O)Cc4c(Cl)cccc4Cl)cc32)c(C)c1C(=O)N1CCC[C@@H]1CN1CCCC1 [Pha-665752] | Modulates P4 evoked Ca^2+ response |
| c1cnc2c(c1)ccc1cccnc12 [Phenanthroline] | Inhibit proteolytic activity of PSA |
| COC(=O)[C@]1(C)CC[C@]2(C)CC[C@]3(C)C4=CC=C5C(=CC(=O)C(O)=C5C)[C@]4(C)CC[C@@]3(C)[C@@H]2C1 [Pristimerin] | Modulates sperm motility; reduces progesterone induced Ca^2+ response |
| CCOCc1nc2c(N)nc3ccccc3c2n1CC(C)(C)O [Resiquimod] | Reduction of sperm motility; only sperm with X chromosome |
| [Na+].[Na+].[Na+].[O]=[V]([O-])([O-])[O-] [Sodium orthovanadate] | Blocks progesterone induced acrosome reaction; blocks progesterone induced Ca^2+ response |
| CC(C)(O)c1ccn2c(-c3ccc(F)c(-c4ccc(F)cc4C#N)c3)cnc2c1F [TP 003] | Enhances sperm motility |
| C=CC[C@@H]1/C=C(\C)C[C@H](C)C[C@H](OC)[C@H]2O[C@@](O)(C(=O)C(=O)N3CCCC[C@H]3C(=O)O[C@H](/C(C)=C/[C@@H]3CC[C@@H](O)[C@H](OC)C3)[C@H](C)[C@@H](O)CC1=O)[C@H](C)C[C@@H]2OC [Tacrolimus] | Blocks progesterone induced acrosome reaction |
| COc1cn(-c2ccc(-n3cccn3)cc2F)nc(-c2ccnn2-c2ccccc2)c1=O [Tak-063] | Enhances sperm motility |
| CCOc1ccccc1OCCN[C@H](C)Cc1ccc(OC)c(S(N)(=O)=O)c1 [Tamsulosin] | Interferes with ejaculation |
| O=c1sn(-c2cccc3ccccc23)c(=O)n1Cc1ccccc1 [Tideglusib] | Spermicidal; vaginal treatment |
| Nc1ccc(-c2ccc3ncc4ccc(=O)n(-c5cccc(C(F)(F)F)c5)c4c3c2)cn1 [Torin 2] | Enhances sperm motility |
| COc1ccc(CCCN2CCC(COC(c3ccccc3)c3ccccc3)CC2)cc1 [UK 78282 hydrochloride] | Modulates Ca^2+ response |
| O.O.O.OO.OO.[K+].[OH-].[V].c1cnc2c(c1)ccc1cccnc12 [bpV(phen)] | Blocks progesterone induced acrosome reaction; blocks progesterone induced Ca^2+ response |
| CC(C)(C)c1ccc(S(=O)(=O)Nc2cnc3[nH]c(C(=O)N[C@H]4CCC[C@H]4O)c(-c4ccccc4)c3c2)cc1 [compound 68853496] | Patent; sAC inhibitor |
| NVP-AEW541 | Inhibition of hyperactivity |
| B1 | Interferes with liquefaction; reduces sperm motility |
